Data taken from ChEMBL document CHEMBL4145494, “Synthesis and biological evaluation of aurora kinases inhibitors based on N-trisubstituted pyrimidine scaffold” (Eur J Med Chem, 2018).
The source made the active and inactive calls. The calls are words filed in the database; no cut-off is given here.

Assays:
[1] = biological target: Aurora kinase B (Homo sapiens, UniProt Q96GD4); assay: Inhibition of AURKB (unknown origin) using FAM-labeled peptide substrate preincubated for 10 mins followed by substrate addition measured after 60 mins by caliper assay
Sequence of Aurora kinase B (Q96GD4 whole entry): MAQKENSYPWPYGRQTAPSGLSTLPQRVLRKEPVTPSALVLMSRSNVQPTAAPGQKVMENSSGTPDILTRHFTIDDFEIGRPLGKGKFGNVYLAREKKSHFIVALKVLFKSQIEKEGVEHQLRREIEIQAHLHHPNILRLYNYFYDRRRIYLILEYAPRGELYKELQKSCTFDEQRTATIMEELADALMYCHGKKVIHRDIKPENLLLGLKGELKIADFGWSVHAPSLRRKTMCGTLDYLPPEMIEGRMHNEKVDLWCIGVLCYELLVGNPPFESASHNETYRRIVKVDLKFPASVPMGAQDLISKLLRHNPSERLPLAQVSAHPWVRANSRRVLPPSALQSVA

[2] = system: U-937; assay: Antitumor activity against human U937 cells xenografted in nude mouse assessed as tumor weight at 50 mg/kg, ip administered once daily for 9 days (reference value: 1.64 +/- 0.22 g); type: functional
[3] = system: NB-4; assay: Cell cycle arrest in human NB4 cells assessed as decrease in 2N DNA content at 0.1 to 1 uM after 24 hrs by propidium iodide staining based flow cytometry; type: functional
[4] = system: U-937; assay: Induction of apoptosis in human U937 cells assessed as live cells at 0.6 uM after 48 hrs by Annexin-V/propidium iodide staining based flow cytometry (reference value: 94.6%); type: functional
[5] = system: MDA-MB-231; assay: Induction of aberrant spindle formation with tripolar and tetrapolar occurrence in human MDA-MB-231 cells at 1 uM after 48 hrs by DAPI staining based immunofluorescence assay; type: functional, cell-based
[6] = system: MDA-MB-231; assay: Inhibition of alpha-tubulin in human MDA-MB-231 cells assessed as abolishment of regular location of protein at 0.5 uM after 48 hrs by DAPI staining based immunofluorescence assay; type: cell-based
[7] = system: U-937; assay: Cell cycle arrest in human U937 cells assessed as accumulation at G2/M phase at 0.1 to 1 uM after 24 hrs by propidium iodide staining based flow cytometry relative to control; type: functional
[8] = system: MDA-MB-231; assay: Induction of chromosome alignment defects in human MDA-MB-231 cells at 1 uM after 48 hrs by DAPI staining based immunofluorescence assay; type: functional, cell-based
[9] = system: U-937; assay: Antiproliferative activity against human U937 cells after 48 hrs by CCK8 assay; type: functional, cell-based; settings: U-937, 48 h
[10] = system: MCF7; assay: Antiproliferative activity against human MCF7 cells after 48 hrs by CCK8 assay; type: functional, cell-based; settings: MCF7, 48 h
[11] = system: U-937; assay: Induction of apoptosis in human U937 cells assessed as live cells at 1.2 uM after 48 hrs by Annexin-V/propidium iodide staining based flow cytometry (reference value: 94.6%); type: functional
[12] = system: K562; assay: Cell cycle arrest in human K562 cells assessed as accumulation at G2/M phase at 0.1 to 1 uM after 24 hrs by propidium iodide staining based flow cytometry relative to control; type: functional
[13] = system: U-937; assay: Induction of apoptosis in human U937 cells assessed as late apoptotic cells at 0.6 uM after 48 hrs by Annexin-V/propidium iodide staining based flow cytometry (reference value: 1.93%); type: functional
[14] = system: K562; assay: Cell cycle arrest in human K562 cells assessed as decrease in 2N DNA content at 0.1 to 1 uM after 24 hrs by propidium iodide staining based flow cytometry; type: functional
[15] = system: NB-4; assay: Antiproliferative activity against human NB4 cells after 48 hrs by CCK8 assay; type: functional, cell-based; settings: NB-4, 48 h
[16] = system: Mus musculus; assay: Toxicity in nude mouse xenografted with human U937 cells assessed as body weight change at 50 to 100 mg/kg, ip administered once daily for 9 days; type: organism-based; settings: in vivo, 216 h
[17] = system: NB-4; assay: Cell cycle arrest in human NB4 cells assessed as accumulation at G2/M phase at 0.1 to 1 uM after 24 hrs by propidium iodide staining based flow cytometry relative to control; type: functional
[18] = Stability of the compound up to 6 months at 40 +/- 2 degC and 75 +/- 5% relative humidity by HPLC analysis; type: physicochemical
[19] = system: U-937; assay: Induction of apoptosis in human U937 cells assessed as late apoptotic cells at 1.2 uM after 48 hrs by Annexin-V/propidium iodide staining based flow cytometry (reference value: 1.93%); type: functional
[20] = biological target: T1, Aurora kinase A (Homo sapiens, UniProt O14965); assay: Inhibition of AURKA (unknown origin) using FAM-labeled peptide substrate preincubated for 10 mins followed by substrate addition measured after 60 mins by caliper assay
T1 sequence (O14965 whole entry): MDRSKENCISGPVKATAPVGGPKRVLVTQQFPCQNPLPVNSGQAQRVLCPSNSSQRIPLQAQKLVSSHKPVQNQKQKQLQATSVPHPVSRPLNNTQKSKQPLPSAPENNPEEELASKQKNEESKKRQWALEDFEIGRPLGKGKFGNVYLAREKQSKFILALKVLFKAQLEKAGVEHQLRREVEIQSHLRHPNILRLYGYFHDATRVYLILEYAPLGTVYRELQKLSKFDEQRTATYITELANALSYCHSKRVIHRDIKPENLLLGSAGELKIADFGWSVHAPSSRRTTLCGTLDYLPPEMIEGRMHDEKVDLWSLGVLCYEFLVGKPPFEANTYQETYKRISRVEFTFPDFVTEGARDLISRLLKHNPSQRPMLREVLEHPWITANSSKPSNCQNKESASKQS

[21] = system: K562; assay: Antiproliferative activity against human K562 cells after 48 hrs by CCK8 assay; type: functional, cell-based; settings: K562, 48 h
[22] = system: HL-60; assay: Antiproliferative activity against human HL60 cells after 48 hrs by CCK8 assay; type: functional, cell-based; settings: HL-60, 48 h
[23] = system: U-937; assay: Induction of apoptosis in human U937 cells assessed as necrotic cells at 1.2 uM after 48 hrs by Annexin-V/propidium iodide staining based flow cytometry (reference value: 1.13%); type: functional
[24] = system: U-937; assay: Induction of apoptosis in human U937 cells assessed as necrotic cells at 0.3 uM after 48 hrs by Annexin-V/propidium iodide staining based flow cytometry (reference value: 1.13%); type: functional
[25] = system: U-937; assay: Antitumor activity against human U937 cells xenografted in nude mouse assessed as tumor size at 100 mg/kg, ip administered once daily for 9 days (reference value: 1069.16 +/- 327.22 mm3); type: functional
[26] = system: U-937; assay: Induction of apoptosis in human U937 cells assessed as late apoptotic cells at 0.3 uM after 48 hrs by Annexin-V/propidium iodide staining based flow cytometry (reference value: 1.93%); type: functional
[27] = system: HCT-116; assay: Antiproliferative activity against human HCT116 cells after 48 hrs by CCK8 assay; type: functional, cell-based; settings: HCT-116, 48 h
[28] = system: U-937; assay: Antitumor activity against human U937 cells xenografted in nude mouse assessed as tumor weight at 100 mg/kg, ip administered once daily for 9 days (reference value: 1.64 +/- 0.22 g); type: functional
[29] = system: U-937; assay: Induction of apoptosis in human U937 cells assessed as necrotic cells at 0.6 uM after 48 hrs by Annexin-V/propidium iodide staining based flow cytometry (reference value: 1.13%); type: functional
[30] = system: U-937; assay: Cell cycle arrest in human U937 cells assessed as decrease in 2N DNA content at 0.1 to 1 uM after 24 hrs by propidium iodide staining based flow cytometry; type: functional
[31] = system: U-937; assay: Induction of apoptosis in human U937 cells assessed as early apoptotic cells at 0.3 uM after 48 hrs by Annexin-V/propidium iodide staining based flow cytometry (reference value: 2.38%); type: functional
[32] = system: U-937; assay: Induction of apoptosis in human U937 cells assessed as early apoptotic cells at 0.6 uM after 48 hrs by Annexin-V/propidium iodide staining based flow cytometry (reference value: 2.38%); type: functional
[33] = system: U-937; assay: Induction of apoptosis in human U937 cells assessed as live cells at 0.3 uM after 48 hrs by Annexin-V/propidium iodide staining based flow cytometry (reference value: 94.6%); type: functional
[34] = system: U-937; assay: Induction of apoptosis in human U937 cells assessed as early apoptotic cells at 1.2 uM after 48 hrs by Annexin-V/propidium iodide staining based flow cytometry (reference value: 2.38%); type: functional
[35] = system: HeLa; assay: Antiproliferative activity against human HeLa cells after 48 hrs by CCK8 assay; type: functional, cell-based
[36] = system: MDA-MB-231; assay: Antiproliferative activity against human MDA-MB-231 cells after 48 hrs by CCK8 assay; type: functional, cell-based; settings: MDA-MB-231, 48 h
[37] = system: U-937; assay: Antitumor activity against human U937 cells xenografted in nude mouse assessed as tumor size at 50 mg/kg, ip administered once daily for 9 days (reference value: 1069.16 +/- 327.22 mm3); type: functional
[38] = system: A-431; assay: Antiproliferative activity against human A431 cells after 48 hrs by CCK8 assay; type: functional, cell-based; settings: A-431, 48 h

Cc1cc(Nc2cc(N3CCN(C)CC3)nc(Nc3ccc(F)c(Cl)c3)n2)n[nH]1
IC50 [1]: 25.7 nM | Activity [2]: 0.93 g | Activity [3]: Active | Activity [4]: 67.8% | Activity [5]: Active | inhibition [6]: Active | Activity [7]: >90% | Activity [8]: Active | IC50 [9]: 12.2 nM | IC50 [10]: 213 nM | Activity [11]: 86.3% | Activity [12]: >90% | Activity [13]: 6.95% | Activity [14]: Active | IC50 [15]: 500 nM | Activity [16]: Non-Toxic | Activity [17]: >90% | Stability [18]: Stable | Activity [19]: 7.15% | IC50 [20]: 7.1 nM | IC50 [21]: 95.2 nM | IC50 [22]: 34 nM | Activity [23]: 4.34% | Activity [24]: 3.01% | Activity [25]: 528.88 mm3 | Activity [26]: 6.76% | IC50 [27]: 180 nM | Activity [28]: 0.54 g | Activity [29]: 3.12% | Activity [30]: Active | Activity [31]: 1.76% | Activity [32]: 2.11% | Activity [33]: 88.5% | Activity [34]: 2.22% | IC50 [35]: 277 nM | IC50 [36]: 95.5 nM | Activity [37]: 753.6 mm3 | IC50 [38]: 80.9 nM
